Measured values as given in publication PMC12048447, “PANTAX: a phase Ib clinical trial of the efflux pump inhibitor SCO-101 in combination with gemcitabine and nab-paclitaxel in non-resectable or metastatic pancreatic cancer” (Investigational New Drugs, 2025).

Legend:
[1] = test system: wild-type PANC-1 cells; experiment: Crystal violet combination assay in wild-type PANC-1 cells; assay type: cell-based, human; conditions: 120 h drug incubation
Protocol: For the crystal violet assay, cells were seeded into 6-well plates at a density of 40,000 cells/well or into 48-wells with 4000 cells/well. One day after seeding, the cells were experimentally treated. Control conditions consisted of either growth medium (‘untreated’) or DMSO diluted in growth medium. All treatments were performed in triplicates. The cells were then kept in the CO2 incubator at 37 °C until staining with crystal violet dye for 10mins and let to dry overnight. The following day crystal violet dye was dissolved using 20% acetic acid and absorbance was measured at 570 nm.
Experiments with 4 different concentrations of either SCO-101 or paclitaxel and their combinations were applied to test for synergy among these two compounds in both the PANC-1 parental and -Paclitaxel resistant cells. […] The SRPK1 inhibitor SPHINX31 was tested at 0.1; 0.5; 1 and 5 µM. The SRPK1 inhibitor SRPIN was tested at 1; 5; 10 and 50 µM. Both inhibitors were tested in combination with 5, 10, 15 and 20 nM Paclitaxel.
A) the resistant PANC-1-Pac and B) the sensitive parental PANC-1 cell lines. Cells were either 1) untreated, 2) incubated with 30µM SCO-101, 3) 40µM SCO-101, 4) 4nM paclitaxel, 5) 30µM SCO-101 + 4nM paclitaxel or 6) 40µM SCO-101 + 4nM paclitaxel. Drug incubation for 120 hours was followed by staining with crystal violet.

[2] = test system: patients with colorectal cancer; conditions: SCO-101 with FOLFIRI, patients with prior progression on FOLFIRI, cited from earlier work
[3] = PANTAX phase Ib: plasma pharmacokinetics of SCO-101; assay type: in vivo, human
Protocol: Pharmacokinetics (PK) blood samples were drawn during the first cycle of treatment on day one of SCO-101 administration (6 time points), on day six (6 time points), and on day nine (72 h after last SCO-101 treatment). Plasma samples were analyzed for SCO-101 using a bioanalytical method (BM/2020/0998) developed and validated under study KF64YR at LabCorp (England). SCO-101 was extracted from human plasma by protein precipitation and analyzed by liquid chromatography using tandem mass spectrometry (LC–MS/MS). Pharmacokinetic parameters were determined by noncompartmental analysis using the software package SAS (version 9.4 or higher). The PK profile of SCO-101 was evaluated by maximum drug plasma concentration (Cmax) and area under the plasma drug concentration–time curve (AUC0 to 8 h).

[4] = test system: patients with non-resectable or metastatic PDAC; experiment: PANTAX phase Ib: efficacy (RECIST v1.1, PFS, OS, Ca 19-9); assay type: in vivo, human; conditions: SCO-101 with Gem and Nab
Text: The PANTAX trial was a prospective, international multicenter phase Ib open-label, non-randomized, dose-escalation study aiming to determine the MTD, safety, and tolerability of SCO-101 when combined with Gem and Nab in patients with non-resectable or metastatic PDAC (Protocol nr. SCO101-002, EudraCT nr. 2020–002627-11; ClinicalTrials.gov identifier NCT04652206). Furthermore, the study aimed to establish the pharmacokinetic profile of SCO-101 in combination with Gem and Nab. ORR, clinical benefit rate (CBR), median progression free survival (mPFS), and mOS were included as secondary end points.
Tumor evaluation by CT and MRI scans were done every 8 weeks. Response was determined according to RECIST v 1.1 [21] by local assessment. ORR was determined as the percentage of evaluable patients experiencing a complete response (CR) or partial response (PR). CBR was determined as the percentage of evaluable patients experiencing response or stable disease (SD) for over 16 weeks. Date of study inclusion was the index date. For assessment of PFS, the date of PD was the date of imaging showing progression or date of last treatment in patients with deteriorating clinical condition. Patients not followed until progression were censored for PFS at the date of last follow-up. One patient was lost to follow-up for survival and was censored from OS analysis on the date of last visit. End of study was 6 months after the last patients last treatment visit.

[5] = biological target: T1, ABCB1 (MDR1) human ABC transporter (Homo sapiens, UniProt P08183); experiment: ABCB1 (MDR1) vesicular uptake inhibition in inside-out membrane vesicles; assay type: biochemical; conditions: vesicular uptake of probe substrate, SCO-101 1.2-300 µM, with and without ATP; read-out: IC50, inhibition of MDR1/ABCB1 efflux transporter
T1 construct: purchased SOLVO Biotechnology
Protocol: Analysis of SCO-101 ABCB1 (MDR1) efflux transporter inhibition was evaluated by measuring the vesicular uptake of a probe substrate into inside-out membrane vesicles expressing ABCB1 (MDR1) human ABC transporter in the absence and presence of SCO-101 (1.2 –300 μM) with and without ATP. Transporter inhibition was observed as reduced level of vesicular uptake of the probe substrate in the presence of ATP. ABCB1 (MDR1) assay was conducted with reagents from PredivezTM VT Reagent Kit for MDR1/P-gp (SOLVO Biotechnology). Assays were conducted as per the manufacturer’s recommendation. The inhibition was evaluated by measuring the vesicular uptake of a probe substrate into inside-out membrane vesicles. Assays were conducted with or without ATP and in the absence and presence of SCO-101 at the indicated concentrations (1.2 –300μM).

T1 sequence (P08183 whole entry): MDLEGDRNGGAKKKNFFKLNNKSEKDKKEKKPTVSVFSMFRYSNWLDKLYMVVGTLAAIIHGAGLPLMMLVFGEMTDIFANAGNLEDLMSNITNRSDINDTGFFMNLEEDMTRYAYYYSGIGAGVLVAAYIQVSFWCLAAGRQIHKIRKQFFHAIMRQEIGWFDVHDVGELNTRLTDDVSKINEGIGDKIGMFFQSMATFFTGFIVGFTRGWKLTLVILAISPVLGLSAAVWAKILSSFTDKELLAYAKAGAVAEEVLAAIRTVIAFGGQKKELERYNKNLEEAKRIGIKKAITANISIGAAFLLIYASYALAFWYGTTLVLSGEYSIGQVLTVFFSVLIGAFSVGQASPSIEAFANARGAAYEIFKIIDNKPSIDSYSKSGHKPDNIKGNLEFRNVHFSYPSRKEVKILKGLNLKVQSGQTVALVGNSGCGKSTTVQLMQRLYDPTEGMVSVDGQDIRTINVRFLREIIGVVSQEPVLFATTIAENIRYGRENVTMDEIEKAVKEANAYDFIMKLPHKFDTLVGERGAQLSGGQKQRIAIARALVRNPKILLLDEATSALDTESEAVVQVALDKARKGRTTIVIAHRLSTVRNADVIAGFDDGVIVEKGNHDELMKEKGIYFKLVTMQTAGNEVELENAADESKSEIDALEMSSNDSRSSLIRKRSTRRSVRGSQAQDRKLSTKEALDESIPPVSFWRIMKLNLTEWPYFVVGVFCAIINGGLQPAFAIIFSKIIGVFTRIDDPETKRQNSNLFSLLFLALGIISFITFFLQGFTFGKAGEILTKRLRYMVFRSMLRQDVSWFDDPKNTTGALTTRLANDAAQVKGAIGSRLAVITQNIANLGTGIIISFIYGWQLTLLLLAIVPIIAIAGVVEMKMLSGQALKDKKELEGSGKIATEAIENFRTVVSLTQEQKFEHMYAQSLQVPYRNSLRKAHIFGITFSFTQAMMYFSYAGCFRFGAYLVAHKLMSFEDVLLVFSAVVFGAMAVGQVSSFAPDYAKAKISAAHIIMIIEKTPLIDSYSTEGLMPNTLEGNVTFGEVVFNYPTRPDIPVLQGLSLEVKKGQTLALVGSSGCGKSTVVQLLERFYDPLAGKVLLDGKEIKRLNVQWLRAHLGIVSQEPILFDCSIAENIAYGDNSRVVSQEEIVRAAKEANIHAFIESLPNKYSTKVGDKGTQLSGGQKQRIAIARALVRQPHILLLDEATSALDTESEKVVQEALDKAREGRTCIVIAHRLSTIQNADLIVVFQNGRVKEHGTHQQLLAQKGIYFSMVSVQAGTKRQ

SMILES: O=C(Nc1cc(C(F)(F)F)cc(C(F)(F)F)c1)Nc1ccc(Br)cc1-c1nnn[nH]1 [SCO-101]
- combination effect of SCO-101 and paclitaxel [1]: no combination effect
- tumor response ([2]; 4 of 25 patients): 16%
- mOS [2]: 10.4 months
- increase in exposure with dose ([3]; 50-250 mg daily, Cmax and AUC0-8 h): approximately dose proportional
- fraction of SCO-101 Cmax present at day 9 ([3]; average, 200 mg and 250 mg doses, 72 h after last SCO-101 treatment): 33%
- accumulation of Cmax and AUC0-8 h ([3]; daily doses for 6 consecutive days, plasma, patients): two- to threefold
- patients with reduction of serum Ca 19-9 of at least 25% ([4]; 15 patients with elevated Ca 19-9 at treatment initiation): 53%
- objective response rate (ORR) ([4]; 15 evaluable patients): 6.7%
- median progression-free survival (mPFS) ([4]; CI 1.7-9.2 months): 3.3 months
- median overall survival (mOS) ([4]; CI 5.7-16 months): 9.5 months
- clinical benefit rate (CBR) ([4]; response or SD over 16 weeks, 15 evaluable patients): 33%
- IC50 [5]: 16.1 µM
